pKi: −log10 of the molar value.
target: T1, human FAAH (Homo sapiens, UniProt O00519); test: Human FAAH biochemical inhibition assay (AMC arachidonoyl amide fluorescence); settings: not given
T1 construct: host or cells: COS-7 cells, transient transfection; 13,000 g membrane fraction solubilised in 1% Triton X-100
T1 sequence (O00519 1-579): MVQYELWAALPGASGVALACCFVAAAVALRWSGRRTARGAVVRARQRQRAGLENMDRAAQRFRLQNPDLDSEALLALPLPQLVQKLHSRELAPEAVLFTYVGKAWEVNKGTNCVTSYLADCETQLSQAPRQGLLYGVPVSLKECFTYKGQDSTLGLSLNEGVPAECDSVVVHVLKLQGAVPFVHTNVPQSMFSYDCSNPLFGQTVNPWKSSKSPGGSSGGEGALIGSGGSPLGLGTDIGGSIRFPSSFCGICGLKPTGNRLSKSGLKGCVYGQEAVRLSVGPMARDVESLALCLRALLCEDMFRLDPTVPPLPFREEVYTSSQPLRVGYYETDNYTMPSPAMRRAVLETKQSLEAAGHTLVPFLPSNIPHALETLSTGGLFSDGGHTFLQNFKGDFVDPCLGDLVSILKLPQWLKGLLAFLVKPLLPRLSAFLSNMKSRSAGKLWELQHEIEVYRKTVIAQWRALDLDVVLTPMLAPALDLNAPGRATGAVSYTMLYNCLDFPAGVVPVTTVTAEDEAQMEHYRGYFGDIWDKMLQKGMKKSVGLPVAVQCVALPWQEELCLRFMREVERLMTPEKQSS
Experimental: The resulting solution is added into one dish of 30-40% confluent COS-7 cells in a drop-wise manner. The COS-7 cell dish is subsequently incubated for 48 hours. The cells are then harvested.
Harvest procedure: Media was aspirated from the dishes and the cells rinsed with 10 mL PBS. The PBS was removed and 3 mLs of PBS added to the dish. The dish was scraped to resuspend the cells, and the subsequent cell suspension collected into a 15 ml conical tube. The cells were pelleted by centrifugation at 1200 rpm for 5 minutes in a bench top centrifuge. PBS was removed and the cell pellet snap frozen in liquid nitrogen, store at −80 C.
The pellets were dounce homogenized and then sonicated to produce cell extract. The cell extract was subsequently centrifuged at 1000 g to remove cellular debris. The pellet was discarded and the supernatant centrifuged at 13,000 g for 20 minutes. The pellet contained membrane bound FAAH. The supernatant was discarded and the pellet resolubilized.
(2) Re-solubilization: The fraction of interest, (13,000 g, membrane fraction) was re-suspended in re-suspension buffer (20 mM Hepes pH 7.8, 10% v/v Glycerol, 1 mM EDTA, 1% Triton X-100) (2.3 mL re-suspension and the sample incubated on ice for 1 hour and then centrifuged to at 13,000 g remove any particulate matter. The supernatant containing solubilized human FAAH was aliquoted and snap frozen in liquid nitrogen and stored at −80° C. until use.
FAAH reaction buffer: 50 mM Hepes (pH 7.5), 1 mM EDTA, 0.2% Triton X-100.
Human FAAH assay; Experimental Protocol: A 0.1 mg/mL Human FAAH solution is made up in FAAH reaction buffer, and 24 ul pipetted into a 384 well plate. To this is added 1 uL of a 3 fold serially diluted inhibitor from a DMSO stock solution. The FAAH solution and inhibitor are incubated for 30 minutes at room temperature. The FAAH reaction is initiated by the addition of 25 uL of 40 uM AMC Arachidonoyl Amide in FAAH reaction buffer, yielding a final reaction human FAAH preparation concentration of 0.05 mg/ml and AMC-Arachidonoyl substrate concentration of 20 uM, reaction volume 50 uL. The reaction is allowed to proceed for 4 hours at room temperature. […] The microtiter plate in read in the envision plate reader.

SMILES	pKi
OB(O)c1ccc(Cl)cc1 [Compound I-82]	6.00 to 8.00

same assay, conditions: Table 1, human FAAH (no asterisk); read-out: Activity (Ki)

SMILES	pKi
CC1(C)OB(c2cccc3cc[nH]c23)OC1(C)C [Compound I-3]	< 6.00
OB(O)C1=CCCCCC1 [Compound I-11]	< 6.00
OB(O)c1cc(F)cc(C(F)(F)F)c1 [Compound I-13]	7.00 to 8.00
Cc1cc(F)cc(B(O)O)c1 [Compound I-14]	6.00 to 8.00
OB(O)c1cc(F)cc(Cl)c1 [Compound I-18]	7.00 to 8.00
CCOc1cc(B(O)O)cc(C(F)(F)F)c1 [Compound I-19]	< 6.00
Cc1cc(Cl)cc(B(O)O)c1 [Compound I-20]	6.00 to 8.00
OB(O)c1cc(Cl)cc(Cl)c1 [Compound I-22]	6.00 to 8.00
OB(O)c1cc(Br)cc(Br)c1 [Compound I-23]	6.00 to 8.00
OB(O)c1cc(F)cc(F)c1 [Compound I-24]	6.00 to 8.00
Cc1cc(Br)cc(B(O)O)c1 [Compound I-25]	6.00 to 8.00
OB(O)c1cc(F)cc(Br)c1 [Compound I-26]	7.00 to 8.00
OB(O)c1ccc(F)c(OCC(F)(F)F)c1 [Compound I-28]	6.00 to 8.00
CCC[C@H]1CC[C@H](c2ccc(B(O)O)cc2)CC1 [Compound I-30]	> 8.00
OB(O)c1ccc(Cl)s1 [Compound I-37]	6.00 to 8.00
OB(O)c1cccs1 [Compound I-40]	< 6.00
OB(O)c1ccc(C2CCCC2)cc1 [Compound I-43]	> 8.00
OB(O)c1c(F)c(F)c(Br)c(F)c1F [Compound I-44]	< 6.00
N#Cc1ccc(B(O)O)cc1 [Compound I-46]	6.00 to 8.00
CCCCCCCc1ccc(B(O)O)cc1 [Compound I-49]	> 8.00
OB(O)c1cccc(C(F)(F)F)c1 [Compound I-50]	7.00 to 8.00

SMILES	pKi
OB(O)c1ccsc1Cl [Compound I-51]	6.00 to 8.00
CCCCOc1c(F)c(F)c(B(O)O)c(F)c1F [Compound I-53]	< 6.00
CCCOc1c(F)c(F)c(B(O)O)c(F)c1F [Compound I-54]	< 6.00
OB(O)c1c(F)c(F)cc(F)c1F [Compound I-55]	< 6.00
OB(O)c1cc(C(F)(F)F)cc(C(F)(F)F)c1 [Compound I-63]	< 6.00
OB(O)c1ccoc1 [Compound I-64]	< 6.00
OB(O)c1ccc(I)cc1 [Compound I-70]	7.00 to 8.00
OB(O)c1ccc(F)cc1 [Compound I-72]	< 6.00
OB(O)c1ccc(Cl)c(Cl)c1 [Compound I-75]	7.00 to 8.00
O=[N+]([O-])c1ccc(B(O)O)cc1 [Compound I-83]	6.00 to 8.00
CS(=O)(=O)c1ccc(B(O)O)cc1 [Compound I-84]	6.00 to 8.00
OB(O)c1ccc(C(F)(F)F)cc1 [Compound I-86]	7.00 to 8.00
OB(O)c1ccc2c(c1)OCO2 [Compound I-88]	< 6.00
OB(O)c1cncnc1 [Compound I-89]	< 6.00
OB(O)c1ccncc1 [Compound I-90]	< 6.00
OB(O)c1cccnc1 [Compound I-91]	< 6.00
OB(O)c1ccsc1 [Compound I-92]	< 6.00
OB(O)c1ccco1 [Compound I-93]	< 6.00
OB(O)c1ccc2c(c1)OCCO2 [Compound I-98]	6.00 to 8.00
OB1OCCc2ccccc21 [Compound I-99]	< 6.00

Continued, values first:

pKi	SMILES
6.00 to 8.00	OB(O)c1cc(I)ccc1F [Compound I-1]
7.00 to 8.00	OB(O)c1cccc(I)c1 [Compound I-2]
6.00 to 8.00	OB(O)c1cccc2c1oc1ccccc12 [Compound I-4]
< 6.00	COc1cccc(COc2c(Br)cccc2B(O)O)c1 [Compound I-5]
< 6.00	CCOc1ccc(Br)cc1B(O)O [Compound I-6]
< 6.00	CC(C)Oc1c(Br)cc(F)cc1B(O)O [Compound I-7]
< 6.00	CCCOc1c(Br)cc(F)cc1B(O)O [Compound I-8]
6.00 to 8.00	CCOc1c(Br)cc(F)cc1B(O)O [Compound I-9]
7.00 to 8.00	COc1c(Br)cc(F)cc1B(O)O [Compound I-10]
< 6.00	COc1ccc(Br)cc1B(O)O [Compound I-12]
6.00 to 8.00	COc1cc(F)cc(B(O)O)c1 [Compound I-15]
6.00 to 8.00	CCOc1cc(F)cc(B(O)O)c1 [Compound I-16]
< 6.00	COc1cc(Br)cc(B(O)O)c1 [Compound I-17]
< 6.00	COc1cc(B(O)O)cc(C(F)(F)F)c1 [Compound I-21]
7.00 to 8.00	OB(O)c1cc(OC(F)(F)F)ccc1F [Compound I-27]
7.00 to 8.00	OB(O)c1cccc(Br)c1 [Compound I-29]
7.00 to 8.00	OB(O)c1ccc(-c2cccs2)cc1 [Compound I-31]
6.00 to 8.00	COc1ccc(B(O)O)cc1Cl [Compound I-32]
6.00 to 8.00	Cc1ccc(B(O)O)cc1Cl [Compound I-33]

pKi	SMILES
7.00 to 8.00	OB(O)c1ccc(Br)c(F)c1F [Compound I-34]
7.00 to 8.00	CC(C)Oc1ccc(B(O)O)cc1Cl [Compound I-35]
> 8.00	CCCCOc1ccc(B(O)O)cc1F [Compound I-36]
> 8.00	CCCCOc1ccc(B(O)O)cc1Cl [Compound I-38]
6.00 to 8.00	OB(O)c1ccccc1Cl [Compound I-39]
< 6.00	OB(O)c1cccc2cnccc12 [Compound I-41]
6.00 to 8.00	CC(=O)c1cccc(B(O)O)c1 [Compound I-42]
6.00 to 8.00	OB(O)c1cccc(OC(F)(F)F)c1 [Compound I-45]
< 6.00	CS(=O)(=O)c1cccc(B(O)O)c1 [Compound I-47]
6.00 to 8.00	OB(O)c1ccccc1OC(F)(F)F [Compound I-48]
> 8.00	CCOc1ccc2cc(B(O)O)ccc2c1 [Compound I-52]
> 8.00	OB(O)c1ccc2cc(OCc3ccccc3)ccc2c1 [Compound I-56]
6.00 to 8.00	CCc1ccc(B(O)O)cc1 [Compound I-57]
7.00 to 8.00	CCCc1ccc(B(O)O)cc1 [Compound I-58]
6.00 to 8.00	CCOc1ccc(B(O)O)cc1 [Compound I-59]
7.00 to 8.00	CCCOc1ccc(B(O)O)cc1 [Compound I-60]
7.00 to 8.00	CCCCOc1ccc(B(O)O)cc1 [Compound I-61]
< 6.00	OB(O)c1cncc2ccccc12 [Compound I-62]
< 6.00	OB(O)c1cnc2ccccc2c1 [Compound I-65]

pKi	SMILES
< 6.00	O=[N+]([O-])c1ccccc1B(O)O [Compound I-66]
< 6.00	CN(C)c1ccc(B(O)O)cc1 [Compound I-68]
6.00 to 8.00	OB(O)c1ccc(Br)cc1 [Compound I-69]
< 6.00	OB(O)c1cccc(F)c1 [Compound I-71]
6.00 to 8.00	OB(O)c1cccc(Cl)c1 [Compound I-73]
< 6.00	OB(O)c1ccc(O)cc1 [Compound I-74]
< 6.00	COc1cccc(B(O)O)c1 [Compound I-76]
< 6.00	COc1ccc(B(O)O)cc1OC [Compound I-77]
< 6.00	COc1ccccc1B(O)O [Compound I-78]
< 6.00	Cc1cccc(B(O)O)c1 [Compound I-79]
6.00 to 8.00	Cc1ccc(B(O)O)cc1C [Compound I-80]
< 6.00	Cc1ccccc1B(O)O [Compound I-81]
6.00 to 8.00	CC(=O)c1ccc(B(O)O)cc1 [Compound I-85]
< 6.00	COc1ccc(B(O)O)cc1 [Compound I-87]
7.00 to 8.00	CC(C)(C)c1ccc(B(O)O)cc1 [Compound I-94]
7.00 to 8.00	CC(C)c1ccc(B(O)O)cc1 [Compound I-95]
< 6.00	Cc1ccc(B(O)O)cc1 [Compound I-96]
7.00 to 8.00	CC(C)Cc1ccc(B(O)O)cc1 [Compound I-97]
